Key:
[1] = system: OVA-immunized mice; assay: Mouse immunization study: cytokines of spleen and lymph node cells after ex vivo OVA re-stimulation; type: in vivo, BALB/c mice
Protocol: (§1) Mouse Immunization Studies. Six- to seven-week-old female BALB/c mice were purchased from Harlan Laboratories (Indianapolis, IN, USA). Mice were randomized into three groups, and immunized subcutaneously with 100 μg OVA (endotoxin free; BioVendor, Ashville, NC, USA) plus vehicle (Group 1), 100 μg OVA plus 10 μg PEN (Group 2), or 100 μg OVA plus 100 μg PEN (group 3, […]). Each group received respective boosting doses of treatment at weeks 2 and 4. Serum was collected from each mouse at every two weeks after initial immunization for detection of IgG1 and IgG2A antibodies by ELISA. Mice were euthanized at week 10 and spleens and lymph nodes were harvested for detection of cytokines IFN-γ, IL-4, IL-10 and IL-13 by ELISA after re-stimulation with 1 mg/mL OVA antigen for 72 h.
(§2) Cytokine ELISA. Purified anti-mouse antibodies against IFN-γ, IL-4, IL-10, IL-12 (Biolegend, San Diego, CA, USA) and IL-13 (eBiosciences, San Diego, CA, USA) were used to coat plates. Recombinant mouse IFN-γ, IL-4, IL-10, IL-12 and IL-13 (BD Biosciences, San Jose, CA, USA) were used as standards. Biotinylated anti-mouse antibodies for IFN-γ, IL-4, IL-10, IL-12 and IL-13 (Biolegend, San Diego, CA) were used as detection antibodies. AKP-streptavidin (BD Biosciences) and p-nitrophenylphosphate (PNPP, Thermo Fisher Scientific, Waltham, MA, USA) were used for detection. Absorbance was measured at 405 nm using a Spectramax microplate reader and data were analyzed by Softmax Pro software (Molecular Devices LLC, Sunnyvale, CA).

[2] = system: OVA-immunized mice; assay: Mouse immunization study: serum IgG1 and IgG2a antibody ELISA; type: in vivo, BALB/c mice; details: 10 μg and 100 μg with 100 μg OVA s.c., compared to vehicle controls (FIG. 6)
Protocol: as §1
Antibody ELISA. Mice were bled at weeks 2, 4, 6, 8 and 10 after immunization and serum was collected from the blood samples. IgG1 and IgG2a antibody titers were determined by ELISA using HRP-conjugated antibodies (Biolegend) and TMB substrate (KPL, Inc., Gaithersburg, MD, USA). Absorbance was measured at 450 nm by Spectramax microplate reader and data were analyzed by Softmax Pro software (Molecular Devices LLC).

[3] = system: RAW macrophages (RAW 264.7); assay: Macrophage gene expression by RT-PCR; type: cell-based
Protocol: (§3) Macrophage Activation. RAW macrophages (RAW 264.7 (ATCC TIB-71), ATCC, Manassas, VA, USA) were plated at a concentration of 0.5×10^6 cells per well in 24-well plates, and treated with PEN (25 μM or 50 μM) or DMSO (vehicle control) for 24, 48 and 72 h. At the indicated times, cells were harvested for detection of MHC-II, CD40, CD80, CD86 surface expression by flow cytometry. RNA was also extracted from cells to determine gene expression of Tnfα, Il1b, Il6, IL10, Il15, Il18, Nos2, Arg1, and Chil3 by RT-PCR.
Real Time PCR. Total RNA was extracted from RAW macrophages using TRIzol reagent (Life Technologies). RNA was reverse-transcribed to cDNAs using an iScript reverse transcriptase kit (Bio-Rad, Hercules, CA, USA). Real-time PCR reactions using the IQ SYBR Green mix reagent were performed in a CFX96 RT-PCR cycler (Bio-Rad). Primer sequences for Tnfa, Illb, 116, IL10, 1115, 1118, Nos2, Argl and Chil3 were selected from the Primer Bank database (pga.mgh.harvard.edu/primerbank). Data were normalized to the reference gene β-actin and presented as fold induction over controls.

[4] = system: Bone marrow-derived dendritic cells (BMDCs); assay: Cytokine production (ELISA) by bone marrow-derived dendritic cells; type: cell-based, C57BL/6 mice
Protocol: Isolation of Mouse Bone Marrow-derived Dendritic Cells. Bone marrow-derived dendritic cells (BMDCs) were prepared by harvesting bone marrow cells from the femurs and tibias of C57BL/6 mice. Red blood cell lysis was performed in ACK lysis buffer, and subsequent cells were plated in RPMI medium supplemented with 10% FBS, 1% penicillin-streptomycin (Life Technologies) and 20 ng/mL GM-CSF (Peprotech, Rocky Hill, NJ, USA) at 5 million cells/dish for 6 to 8 days. Cells were harvested then stimulated with PEN (25 μM or 50 μM) or DMSO for 24 h, and culture supernatants were collected for detection of IL-12 and IL-10 cytokines by ELISA.
as §2

[5] = system: OT-II T cells co-cultured with BMDCs; assay: T cell co-culture with OVA-peptide-loaded BMDCs (CFSE proliferation, IFN-γ ELISA); type: cell-based, OT-II transgenic mice
Protocol: T Cell Co-culture Experiments 5×10^4 BMDCs were pulsed with 10 μg/mL OVA323-339 peptide (Anaspec, Fremont, CA, USA) for 2 h, then incubated with PEN (25 μM or 50 μM) or DMSO (vehicle control) for 24 h. CFSE labeled T cells isolated from spleens of OT-II transgenic mice were added to the wells at a 1:4 (BMDC:T cell) ratio and incubated for 72 h. Antigen-specific T cell proliferation was analyzed by flow cytometry of CFSE stained cells. Cell co-culture supernatants were collected for analysis of IFN-γ cytokine production by ELISA.
as §2

[6] = system: RAW-Blue NF-kB/AP1 reporter cell line; assay: NF-κB and AP-1 activity assay (SEAP reporter, alkaline phosphatase activity); type: cell-based; details: 25 μM, 24 h, compared to vehicle alone (FIG. 1)
Protocol: NF-κB and AP-1 Activity Assay. NF-kB and AP-1 activity was analyzed using the RAW-Blue NF-kB/AP1 reporter cell line (InvivoGen, San Diego, CA, USA), which contains a secreted embryonic alkaline phosphatase (SEAP) reporter construct, inducible by NF-κB and AP-1. Cells were cultured in RPMI 1640 medium supplemented with 10% FBS (Atlanta Biologicals, Flowery Branch, GA, USA) and 1% penicillin streptomycin (Life Technologies, Carlsbad, CA, USA), and stimulated with 25 μM PEN or DMSO (vehicle control) for 24 h. Culture supernatants were then collected and alkaline phosphatase activity was determined by incubating with the detection medium QUANTI-Blue (InvivoGen), and measuring at 655 nm using a SpectraMax spectrophotometer (Molecular Devices LLC, Sunnyvale CA, USA) and analyzed using Softmax Pro software (Molecular Devices LLC).

[7] = system: RAW macrophages (RAW 264.7); assay: Macrophage activation: surface expression of MHC-II, CD40, CD80, CD86 by flow cytometry; type: cell-based
Protocol: as §3
Flow Cytometry. Macrophages treated with PEN or the DMSO control were harvested, washed in PBS, blocked with normal mouse serum, and incubated with fluorochrome conjugated antibodies against the cell surface markers CD40, CD80, CD86 and MHC-II (Biolegend). Cells were acquired on a BD FACS Calibur (BD Biosciences) and analysis was performed using FlowJo software (Tree Star Inc, Ashland, OR, USA).

[8] = both concentrations (25 μM, 50 μM), 72 h

## C=C(CCC=C(C)C)[C@H]1CC[C@H]2[C@@H]3CCC4=CC(=O)CC[C@]4(C)[C@H]3CC[C@]12C [PEN, pentalinonsterol]
[1]; culture supernatants of lymph node and splenic cells (FIGS. 7B, 7F)
  levels of IL-4: increased
[1]; culture supernatants of lymph node and splenic cells (FIGS. 7D, 7H)
  levels of IL-13: increased
[1]; culture supernatants of lymph nodes and spleens, PEN vs vehicle control (FIGS. 7C, 7G)
  levels of IL-10: generally comparable
[1]; lymph node cells and splenocytes, OVA re-stimulation (FIGS. 7A, 7E)
  levels of IFN-γ: significantly increased
[2]
  IgG1 antibody titers: significantly increased
  IgG2a antibody titers: significantly increased
[3]
  transcript levels of Arg1: increased
[3]; 25 μM, after 24 h (FIG. 3E)
  IL-15 gene transcripts: increased
[3]; 25 μM, after 24 h (FIG. 3F)
  IL-18 gene transcripts: increased
[3]; 24 and 48 h, not statistically significant (FIG. 3B)
  Il1b gene expression: increased trend
[3]; 48 h (FIG. 3A)
  mRNA levels of Tnfα: increases
[3]; 48 h (FIG. 3C)
  mRNA levels of Il6: increases
[3]; after 48 h (FIG. 3D)
  gene transcript levels of Nos2: significantly increased
[3]; at 24 h and 48 h
  transcript levels of Chil3: significantly reduced
[3]; at 48 h
  transcript levels of IL-10: significantly reduced
[4]; 50 μM, 24 h (FIG. 4B)
  IL-10 production: slight increase
[4]; 24 h (FIG. 4A)
  production of IL-12: significantly induces
[5]; 72 h co-culture, PEN-treated vs DMSO-treated BMDCs (FIG. 4C)
  T cell proliferation: higher
[5]; 72 h co-culture, PEN-treated vs DMSO-treated BMDCs (FIG. 4D)
  production of IFN-γ by T cells: significantly increased
[5]; BMDCs treated with 50 μM vs 25 μM
  T cell responses (proliferation and IFN-γ), 50 μM compared to 25 μM: greater
[6]
  alkaline phosphatase activity (NF-κB/AP-1 SEAP reporter): significantly increased
[7]; 25 μM and 50 μM, after 72 h (FIGS. 2A, 2E)
  expression of CD40: significantly enhanced
[7]; 25 μM and 50 μM, at 48 h and 72 h (FIGS. 2B, 2F)
  expression of MHC-II: significantly enhanced
[7]; 50 μM, 48 h
  expression of CD80: increased
  expression of CD86: increased
[7]; [8]
  expression of CD80: increased
  expression of CD86: increased

Reference: US12478671B2, “Sterols as novel immunomodulatory agents and their use as vaccine adjuvants” (Ohio State Innovation Foundation, priority 2017, dated 2025)
